Experiments:
[1] = logP determination by HPLC on a reversed-phase column (C18); type: physicochemical; conditions: for logP^a): HPLC-MS method a); for log P: HPLC-MS
Rhipicephalus sanguineus = Rhipicephalus sanguineus - in vitro contact tests with adult brown dog ticks; type: in vivo; conditions: application rate 5 μg/cm2; after 48 h; ticks dead or moribund
In short: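 Efficacy, scored after 48 h, is the % of adult ticks dead or moribund, i.e. unable to climb away on a 45-50° C hotplate within 5 min. Tubes held 5-10 ticks in the dark at room temperature, on an acetone-applied coating of 5 μg/cm^2 (900 ppm solution).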

Ctenocephalides felis [2] = assay: Ctenocephalides felis - in vitro contact tests with adult cat fleas; type: in vivo; conditions: application rate 5 μg/cm2 (=500 g/ha); after 48 h; fleas dead or moribund
In short: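 Efficacy, as percentage of fleas dead or moribund, was scored at 48 h by knocking fleas to the tube base. Exposure was by contact with a dried acetone film of compound at 5 μg/cm^2 area dose; 5–10 adults per tube, room temperature, ambient humidity.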

Amblyomma hebraeum = assay: Amblyomma hebaraeum test (tick nymphs, immersion); type: in vivo; conditions: application rate 100 ppm; tick nymphs immersed one minute; after 42 days
Method: Solvent: dimethyl sulphoxide
To produce an appropriate active ingredient formulation, 10 mg of active ingredient are mixed with 0.5 ml of dimethyl sulphoxide, and the concentrate is diluted with water to the desired concentration.
Tick nymphs (Amblyomma hebraeum) are placed into perforated plastic beakers and immersed in the desired concentration for one minute. The ticks are transferred on filter paper into a Petri dish and stored in a climate-controlled cabinet.
After 42 days, the kill in % is determined. 100% means that all of the ticks have been killed; 0% means that none of the ticks have been killed.

Boophilus microplus = Boophilus microplus - injection test; type: in vivo; conditions: application rate 20 μg/animal; injection into engorged adult female ticks; after 7 days
In short: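 Five engorged adult female cattle ticks each received a 1 μl abdominal injection of compound solution in dimethyl sulphoxide. Fertile egg laying was assessed at 7 days, with doubtful eggs incubated about 42 days until hatch. 0% efficacy means all eggs fertile.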

[3] = system: Boophilus microplus Parkhurst strain, SP-resistant; assay: Boophilus microplus - dip test; type: in vivo; conditions: application rate 100 ppm; dip of engorged adult female ticks; after 7 days
In short: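 Compound dissolved in DMSO, diluted with water, and used to fully wet groups of 8-10 engorged female cattle ticks (SP-resistant Parkhurst strain). Fertile egg laying assessed at 7 days, doubtful eggs held ~42 days until hatch; 0% means all eggs fertile.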

Ctenocephalides felis [4] = assay: Ctenocephalides felis - oral test; type: in vivo; conditions: application rate 100 ppm in citrated cattle blood; after 2 days
In short: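 Roughly 20 unfed adult C. felis imbibe compound-dosed citrated cattle blood (DMSO formulation) across parafilm from a cylinder above their gauze chamber; percentage mortality recorded at day 2.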

Lucilia cuprina = Lucilia cuprina test; type: in vivo; conditions: application rate 100 ppm; L1 larvae; after 2 days
In short: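 Mortality (%) of first-instar blowfly larvae, about 20 per vessel, recorded 2 days after exposure to compound-treated minced horsemeat. Compound dissolved in dimethyl sulphoxide, then water-diluted to the desired concentration.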

Musca domestica = Musca domestica test; type: in vivo; conditions: application rate 100 ppm; adult houseflies; after 2 days
In short: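 Water-diluted DMSO stock of compound, mixed onto a sugar-treated sponge, served as the sole exposure route for ten adult houseflies. Kill percentage scored at 2 days.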

Phaedon cochleariae = Phaedon cochleariae - spray test; type: in vivo; conditions: larvae on Chinese cabbage leaf discs, after 7 days
In short: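 Mortality of mustard beetle larvae was scored as % at day 7 on Brassica pekinensis leaf discs. Discs had been treated by spraying at the desired concentration, using an acetone/dimethylformamide solution diluted in water with 1000 ppm alkylaryl polyglycol ether, and dried before larvae were added.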

Spodoptera frugiperda = Spodoptera frugiperda - spray test; type: in vivo; conditions: caterpillars on maize leaf discs, after 7 days
In short: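 Percent mortality of Spodoptera frugiperda caterpillars scored 7 days after placing them on dried maize leaf discs sprayed at the desired concentration. Spray formulation: compound dissolved in acetone/dimethylformamide, made up with water containing 1000 ppm emulsifier.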

Tetranychus urticae = Tetranychus urticae - spray test, OP-resistant; type: in vivo; conditions: bean leaf discs, after 6 days
In short: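 Mortality (%) read on day 6 after spraying Phaseolus vulgaris leaf discs carrying all mite stages with formulations at the desired concentration. Formulation: active ingredient in acetone plus dimethylformamide, made up with emulsifier-containing water (1000 ppm alkylaryl polyglycol ether).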

[5] = reversed-phase column (C18), Table I-T3

Compound | logP^a) [1] | logP^a) [1, 5] | efficacy (Rhipicephalus sanguineus) [%] | efficacy (Ctenocephalides felis [2]) [%] | efficacy (kill) (Amblyomma hebraeum) [%] | efficacy (laying of fertile eggs) (Boophilus microplus) [%] | efficacy (laying of fertile eggs) [3] [%] | efficacy (kill) (Ctenocephalides felis [4]) [%] | efficacy (kill) (Lucilia cuprina) [%] | efficacy (kill) (Musca domestica) [%] | efficacy (Phaedon cochleariae; application rate 100 g/ha) [%] | efficacy (Spodoptera frugiperda; application rate 100 g/ha) [%] | efficacy (Tetranychus urticae; application rate 100 g/ha) [%] | logP^a) ([1]; reversed-phase column (C18)) | log P [1, 5] | efficacy (Phaedon cochleariae; application rate 500 g/ha) [%] | efficacy (Spodoptera frugiperda; application rate 500 g/ha) [%] | efficacy (Tetranychus urticae; application rate 500 g/ha) [%] | logP ([1]; HPLC, C18 reversed phase, acetonitrile/water with formic acid, EEC Directive 79/831 Annex V.A8)
Cc1cc(C(F)(C(F)(F)F)C(F)(F)F)cc(C)c1-n1cc(-c2ccc(Cl)c(C(=O)NC3CC3)c2)cn1 [I-T3-1] | 4.4 | 4.4 | 100 | 100 | 100 | 100 | 100 | 100 | 100 | 100 | 100 | 100 | 100 |  |  |  |  |  | 
O=C(NC1CC1)c1cc(-c2cnn(-c3c(Cl)cc(C(F)(C(F)(F)F)C(F)(F)F)cc3C(F)(F)F)c2)ccc1Cl [I-T3-56] | 4.4 | 4.4 | 100 | 100 | 100 | 100 | 100 | 100 | 100 | 100 | 100 | 100 | 100 |  |  |  |  |  | 
O=C(NC1CC1)c1cc(-c2cnn(-c3c(F)cc(C(F)(C(F)(F)F)C(F)(F)F)cc3F)c2)ccc1Cl [I-T3-61] | 4.0 | 4.0 | 100 | 100 | 80 | 100 | 100 | 100 | 100 | 100 | 100 | 100 | 100 |  |  |  |  |  | 
Cc1cc(C(F)(C(F)(F)F)C(F)(F)F)cc(Cl)c1-n1cc(-c2ccc(Cl)c(C(=O)NC3CC3)c2)cn1 [I-T3-63] | 4.4 | 4.4 | 100 | 100 | 100 | 100 | 100 | 100 | 100 | 100 | 100 | 100 | 100 |  |  |  |  |  | 
CCc1cc(C(F)(C(F)(F)F)C(F)(F)F)cc(Cl)c1-n1cc(-c2ccc(Cl)c(C(=O)NC3(C#N)CC3)c2)cn1 [I-T3-71] | 4.5 | 4.5 | 100 | 100 | 100 | 100 | 100 | 100 | 100 | 100 | 100 | 100 | 90 |  |  |  |  |  | 
CCc1cc(C(F)(C(F)(F)F)C(F)(F)F)ccc1-n1cc(-c2cnc(Cl)c(C(=O)NC3CC3)c2)cn1 [I-T3-104] |  |  | 100 |  | 100 | 100 | 100 | 100 | 100 | 100 |  |  |  | 4.2 | 4.2 | 100 | 100 | 90 | 
O=C(NC1CC1)c1cc(-c2cnn(-c3c(Br)cc(C(F)(C(F)(F)F)C(F)(F)F)cc3C(F)(F)F)c2)ccc1Cl [I-T3-148] |  |  | 100 | 100 | 100 | 100 | 100 | 100 | 100 | 100 | 100 | 100 | 90 | 4.5 | 4.5 |  |  |  | 
N#CC1(NC(=O)c2cc(-c3cnn(-c4c(Br)cc(C(F)(C(F)(F)F)C(F)(F)F)cc4C(F)(F)F)c3)ccc2Cl)CC1 [I-T3-155] |  |  | 100 | 100 | 100 | 100 | 100 | 100 | 100 | 100 | 100 | 100 | 100 | 4.4 | 4.4 |  |  |  | 
Cc1cc(C(F)(C(F)(F)F)C(F)(F)F)cc(C)c1-c1cnn(-c2cnc(Cl)c(C(=O)NC3(C#N)CC3)c2)c1 [I-T4-4] |  |  | 100 | 100 | 100 | 100 | 100 | 100 | 100 |  | 100 | 100 | 100 |  |  |  |  |  | 4.3

— US10150737B2, “Compounds for controlling arthropods” (priority 2013, dated 2018)
